Measurements as given in the PolyMetriX glass transition set.
± gives the standard deviation of the reports.

Key:
[1] = not given; remark: listed apart in the source

Row | SMILES | glass transition temperature [°C] | glass transition temperature [1] [°C]
1 | *Oc1c(F)c(F)c(Oc2c(F)c(F)c3c(c2F)C(=O)N(c2ccc(-c4ccc(N5C(=O)c6c(F)c(*)c(F)c(F)c6C5=O)cc4C(F)(F)F)c(C(F)(F)F)c2)C3=O)c(F)c1F (repeat unit) | 312.00 | 
2 | *Oc1ccc(Oc2ccc3c(c2)C(=O)N(c2ccc(Oc4ccc5ccccc5c4-c4c(Oc5ccc(N6C(=O)c7ccc(*)cc7C6=O)cc5C(F)(F)F)ccc5ccccc45)c(C(F)(F)F)c2)C3=O)cc1 (repeat unit) | 256.00 | 
3 | *Oc1ccc2c(c1)C(=O)N(c1cc(N3C(=O)c4ccc(*)cc4C3=O)cc(C(F)(F)F)c1)C2=O (repeat unit) | 274.00 | 
4 | *C(=O)Nc1ccc2ccccc2c1-c1c(NC(=O)c2ccc3c(c2)C(=O)N(c2ccc(Cc4ccc(N5C(=O)c6ccc(*)cc6C5=O)cc4)cc2)C3=O)ccc2ccccc12 (repeat unit) | 285.40 | 
5 | *c1ccc(Cc2ccc(-n3c(=O)c4ccc5c(=O)n(*)c(=O)c5c4c3=O)c(C)c2)cc1C (repeat unit) | 354.00 | 
6 | *Oc1ccc2c(c1)C(=O)N(c1ccc(Oc3c(C)cc(Oc4ccc(N5C(=O)c6ccc(*)cc6C5=O)cc4)c(C)c3C)cc1)C2=O (repeat unit) | 261.00 | 
7 | *Oc1cccc(Oc2ccc(Oc3cccc4c3C(=O)N(c3ccc(Oc5ccc(N6C(=O)c7cccc(*)c7C6=O)cc5)cc3)C4=O)cc2)c1 (repeat unit) | 239.00 | 
8 | *Oc1ccc2c(c1)C(=O)N(c1ccc(Oc3ccc(Oc4ccc(N5C(=O)c6ccc(*)cc6C5=O)cc4)cc3C(C)(C)C)cc1)C2=O (repeat unit) | 240.00 | 
9 | *Oc1cccc(Sc2ccc(Oc3ccc4c(c3)C(=O)N(c3ccc(Oc5cccc(Oc6ccc(N7C(=O)c8ccc(*)cc8C7=O)cc6)c5)cc3)C4=O)cc2)c1 (repeat unit) | 219.00 | 
10 | *Oc1cccc(S(=O)(=O)c2ccc(Oc3cccc4c3C(=O)N(c3ccc(Oc5cccc(Oc6ccc(N7C(=O)c8cccc(*)c8C7=O)cc6)c5)cc3)C4=O)cc2)c1 (repeat unit) | 216.00 | 
11 | *Oc1ccc(C(c2ccc(Oc3cccc4c3C(=O)N(CCCCCCCCN3C(=O)c5cccc(*)c5C3=O)C4=O)cc2)(C(F)(F)F)C(F)(F)F)cc1 (repeat unit) | 135.00 | 
12 | *CC(*)c1ccccc1Cl (repeat unit) [Poly(2-chlorostyrene)] |  | 118.92 ± 2.1
13 | *CC(*)(C)C(=O)OCCO (repeat unit) [Poly(2-hydroxyethyl methacrylate)] |  | 84.03 ± 10
14 | *CC(*)(C)C(=O)OCC(C)O (repeat unit) [Poly(2-hydroxypropyl methacrylate)] |  | 75.4 ± 1.9
15 | *CC(*)(C)CC (repeat unit) [Poly(2-methylbutene)] |  | -11.58 ± 9.3
16 | *CC(*)(C)C(=O)OCCc1ccccc1 (repeat unit) [Poly(2-phenylethyl methacrylate)] |  | 37.42 ± 16
17 | *CC(*)c1ccc(C)c(C)c1 (repeat unit) [Poly(3,4-dimethyl styrene) ] |  | 111 ± 2.4
18 | *CC(*)c1ccc(F)cc1 (repeat unit) [Poly(4-fluorostyrene)] |  | 104 ± 4.9
19 | *CC(*)c1ccc(C(=O)c2ccc(C)cc2)cc1 (repeat unit) [Poly(4-p-toluoylstyrene)] |  | 98.92 ± 0.1
20 | *CC(*)C(=O)Nc1ccccc1 (repeat unit) [Poly(N-phenyl acrylamide)] |  | 155.92 ± 5.8
21 | *CC(*)n1c2ccccc2c2ccccc21 (repeat unit) [Poly(N-vinyl carbazole)] |  | 150 ± 44
22 | *CC(*)C(N)=O (repeat unit) [Poly(acrylamide)] |  | 178.92 ± 20

Row | SMILES | glass transition temperature [°C] | glass transition temperature [1] [°C]
23 | *CC(*)C(=O)O (repeat unit) [Poly(acrylic acid)] |  | 105 ± 7.3
24 | *CCCCOC(=O)c1ccc(C(=O)O*)cc1 (repeat unit) [Poly(butylene terephthalate)] |  | 44.12 ± 6
25 | *CC(*)C(=O)OC1CCCCC1 (repeat unit) [Poly(cyclohexyl acrylate)] |  | 20.42 ± 6.5
26 | *CCCCCCCCCC(=O)N* (repeat unit) [Poly(decano-10-lactam)] |  | 42.42 ± 0.8
27 | *CC(CCl)O* (repeat unit) [Poly(epichlorohydrin)] |  | -22.22 ± 1.5
28 | *CC(*)(Cl)C(=O)OCC (repeat unit) [Poly(ethyl a-chloroacrylate) ] |  | 92 ± 4.8
29 | *CC(*)OCC (repeat unit) [Poly(ethyl vinyl ether)] |  | -26.58 ± 9.8
30 | *CCOC(=O)CCC(=O)O* (repeat unit) [Poly(ethylene succinate)] |  | -8.63 ± 3.5
31 | *CC(*)CCCCCCC (repeat unit) [Poly(heptylethylene)] |  | -47.58 ± 0.8
32 | *CCCCCCNC(=O)CCCCC(=O)N* (repeat unit) [Poly(hexamethylene adipamide)] |  | 54.53 ± 5.2
33 | *CCCCCCNC(=O)CCCCCCCC(=O)N* (repeat unit) [Poly(hexamethylene azelamide)] |  | 50.58 ± 12
34 | *CCCCCCNC(=O)c1cccc(C(=O)N*)c1 (repeat unit) [Poly(hexamethylene isophthalamide) ] |  | 129 ± 5.4
35 | *CCCCCCNC(=O)CCCCCCCCC(=O)N* (repeat unit) [Poly(hexamethylene sebacamide) ] |  | 40 ± 4.1
36 | *CC(*)(C#N)C(=O)OCCCCCC (repeat unit) [Poly(hexyl cyanoacrylate)] |  | 85.92 ± 0.1
37 | *CC(*)OCCCCCC (repeat unit) [Poly(hexyl vinyl ether)] |  | -69.58 ± 5.8
38 | *CCCCCCNC(=O)CCCCCCCCCCC(=O)N* (repeat unit) [Poly(iminohexamethyleneiminododecanedioyl)] |  | 45.92 ± 0.1
39 | *CC(*)(C)C (repeat unit) [Poly(isobutene)] |  | -74 ± 3.6
40 | *CC(*)C(=O)OC (repeat unit) [Poly(methyl acrylate) ] |  | 9 ± 2
41 | *CC(*)OC (repeat unit) [Poly(methyl vinyl ether)] |  | -26.97 ± 3.8
42 | *CC(*)C(=O)OCCCCCCCCC (repeat unit) [Poly(n-nonyl acrylate) ] |  | -60 ± 17
43 | *CC(*)C(=O)OCCCCCCCC (repeat unit) [Poly(n-octyl acrylate) ] |  | -65 ± 0.6
44 | *CC(*)C(=O)OCCCCCCCCCCCCCCCCCC (repeat unit) [Poly(octadecyl acrylate)] |  | -2.33 ± 57

Row | SMILES | glass transition temperature [°C] | glass transition temperature [1] [°C]
45 | *CC(*)c1ccc(C(=O)OC)cc1 (repeat unit) [Poly(p-methoxycarbonyl styrene) ] |  | 113 ± 5.6
46 | *OC(C)COC(*)=O (repeat unit) [Poly(propylene carbonate)] |  | 35.73 ± 1.6
47 | *CC(*)CCC (repeat unit) [Poly(propylethylene)] |  | -35 ± 46
48 | *c1ccc(*)[nH]1 (repeat unit) [Poly(pyrrole)] |  | 86.42 ± 23
49 | *CC(*)(C)C(=O)OC(C)CC (repeat unit) [Poly(sec-butyl methacrylate)] |  | 57 ± 2.6
50 | *CCCCOC(=O)CCCCC(=O)O* (repeat unit) [Poly(tetramethylene adipate) ] |  | -68 ± 2.1
51 | *CCCOC(=O)c1ccc(C(=O)O*)cc1 (repeat unit) [Poly(trimethylene terephthalate)] |  | 52.92 ± 1.3
52 | *CC(*)F (repeat unit) [Poly(vinyl fluoride)] |  | 33.92 ± 10
53 | *CC(*)OC(C)C (repeat unit) [Poly(vinyl isopropyl ether) ] |  | -4 ± 2.3
54 | *CC(*)SC (repeat unit) [Poly(vinyl methyl sulfide) ] |  | -1 ± 1.2
55 | *CC(*)OCCCCCCCCCC (repeat unit) [Poly(vinyl n-decyl ether) ] |  | -76 ± 8.5
56 | *CC(*)OCCCCC (repeat unit) [Poly(vinyl n-pentyl ether)] |  | -66 ± 0.6
57 | *CC(*)(Cl)Cl (repeat unit) [Poly(vinylidene chloride)] |  | -9.83 ± 9.4
58 | *Oc1ccc(C(c2ccc(OC(*)=O)cc2)C(C)C)cc1 (repeat unit) [Poly[1,1-(2-methyl propane) bis(4-phenyl)carbonate]] |  | 149 ± 0.6
59 | *Oc1ccc(C(C)(CCC)c2ccc(OC(*)=O)cc2)cc1 (repeat unit) [Poly[2,2-pentane bis(4-phenyl)carbonate]] |  | 137 ± 0.6
60 | *Oc1ccc(C(CCC)(CCC)c2ccc(OC(*)=O)cc2)cc1 (repeat unit) [Poly[4,4-heptane bis(4-phenyl)carbonate]] |  | 148 ± 0.6
61 | *CC(*)C(F)(F)C(F)(F)F (repeat unit) [Poly[(pentafluoroethyl)ethylene] ] |  | 41 ± 0.6
62 | *CCCCCCCCO* (repeat unit) [Polyoxyoctamethylene ] |  | -70 ± 34
63 | *CC(*)c1ccccc1 (repeat unit) [atactic polystyrene] |  | 95.96 ± 28
64 | *CC(*)(C)C(=O)OCCCCCC (repeat unit) [poly(hexyl methacrylate)] |  | -6.6 ± 7.2
65 | *CC(*)(C)C(=O)OC (repeat unit) [poly(methyl methacrylate)] |  | 108.92 ± 15
66 | *CCCCCCCCCCCCCCC(=O)O* (repeat unit) [poly(pentadecalactone)] |  | -24.62 ± 3.6
